According to PubChem BioAssay AID330 (DTP/NCI, 2004):
Where “and” joins values, the source holds several entries; their conditions need not be identical. Equal values may be shown once. Toxic doses and inconclusive results are not listed. The calls were made as follows: active = survival T/C of 150% or more; inactive = T/C below 125% in these data.

Test system: P388 leukemia ip, CD2F1 mice, survival T/C
Experiment: NCI In Vivo Anticancer Drug Screen. Data for tumor model P388 Leukemia (intraperitoneal) in CD2F1 (CDF1) mice
Conditions: endpoint: median survival time, higher = longer survival
Method in brief: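 Mice carrying the transplanted tumor received test compound or vehicle. Survival was recorded in each group, and the value is the treated-group measurement divided by that of the vehicle-treated control group.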

[1] = dose: 60.0 mg/kg/injection, schedule: Q01DX005 (ip), vehicle: saline with Tween-80
[2] = dose: 120.0 mg/kg/injection, schedule: Q01DX005 (ip), vehicle: saline with Tween-80
[3] = dose: 240.0 mg/kg/injection, schedule: Q01DX005 (ip), vehicle: saline with Tween-80
[4] = dose: 50.0 mg/kg/injection, schedule: Q01DX009 (ip), vehicle: saline with Tween-80
[5] = dose: 100.0 mg/kg/injection, schedule: Q01DX009 (ip), vehicle: saline with Tween-80
[6] = dose: 200.0 mg/kg/injection, schedule: Q01DX009 (ip), vehicle: saline with Tween-80
[7] = dose: 12.5 mg/kg/injection, schedule: Q01DX009 (ip), vehicle: Klucel (hydroxypropylcellulose) (HPC)
[8] = dose: 25.0 mg/kg/injection, schedule: Q01DX009 (ip), vehicle: Klucel (hydroxypropylcellulose) (HPC)
[9] = dose: 50.0 mg/kg/injection, schedule: Q01DX009 (ip), vehicle: Klucel (hydroxypropylcellulose) (HPC)
[10] = dose: 100.0 mg/kg/injection, schedule: Q01DX009 (ip), vehicle: Klucel (hydroxypropylcellulose) (HPC)
[11] = dose: 25.0 mg/kg/injection, schedule: Q01DX009 (ip), vehicle: saline with Tween-80
[12] = dose: 200.0 mg/kg/injection, schedule: Q01DX009 (ip), vehicle: Klucel (hydroxypropylcellulose) (HPC)
[13] = dose: 12.5 mg/kg/injection, schedule: Q01DX009 (ip), vehicle: saline with Tween-80

Measured: T/C

O=C(O)C(=O)O.[Ti].[c-]1[c-][c-][cH-][c-]1.[c-]1[c-][c-][cH-][c-]1
inactive: dose: 3.75 mg/kg/injection, schedule: Q01DX005 (ip), vehicle: Klucel (hydroxypropylcellulose) (HPC) 94 % of control | dose: 7.5 mg/kg/injection, schedule: Q01DX005 (ip), vehicle: Klucel (hydroxypropylcellulose) (HPC) 99 % of control | dose: 15.0 mg/kg/injection, schedule: Q01DX005 (ip), vehicle: Klucel (hydroxypropylcellulose) (HPC) 99 % of control | dose: 30.0 mg/kg/injection, schedule: Q01DX005 (ip), vehicle: Klucel (hydroxypropylcellulose) (HPC) 100 % of control

COc1ccc(N(Cc2ccc(C)o2)C(=S)Nc2ccccc2)cc1
inactive: [1] 98 % of control | [2] 102 % of control | [3] 105 % of control

O=C1OC(c2cccnc2)OC(c2ccccc2)=C1C(=O)c1ccccc1 (centres undefined)
inactive: dose: 60.0 mg/kg/injection, schedule: Q01DX005 (ip), vehicle: Klucel (hydroxypropylcellulose) (HPC) 107 % of control | dose: 120.0 mg/kg/injection, schedule: Q01DX005 (ip), vehicle: Klucel (hydroxypropylcellulose) (HPC) 98 % of control | dose: 240.0 mg/kg/injection, schedule: Q01DX005 (ip), vehicle: Klucel (hydroxypropylcellulose) (HPC) 97 % of control

COC1/C=C/OC2(C)Oc3c(C)c(O)c4c(O)c(c(/C=N/N5CCCN(C)CC5)c(O)c4c3C2=O)NC(=O)/C(C)=C\C=C\C(C)C(O)C(C)C(O)C(C)C(OC(C)=O)C1C (centres undefined)
inactive: [4] 104 % of control | [5] 100 % of control | [6] 102 % of control

CC(=O)N(CC1OC2OC(C)(C)OC2C2OC(C)(C)OC12)N=Nc1ccc([N+](=O)[O-])cc1 (centres undefined)
inactive: dose: 50.0 mg/kg/injection, schedule: Q01DX005 (ip), vehicle: Klucel (hydroxypropylcellulose) (HPC) 100 % of control | dose: 100.0 mg/kg/injection, schedule: Q01DX005 (ip), vehicle: Klucel (hydroxypropylcellulose) (HPC) 89 % of control | dose: 200.0 mg/kg/injection, schedule: Q01DX005 (ip), vehicle: Klucel (hydroxypropylcellulose) (HPC) 91 % of control

COc1cc2ccc(CCNCc3ccccc3)cc2cc1OC
inactive: [7] 95 % of control | [8] 94 % of control | [9] 95 % of control | [10] 90 % of control

CP1(=O)CC2=C(CC2)C1
inactive: dose: 50.0 mg/kg/injection, schedule: Q01DX009 (ip), vehicle: saline 108 % of control | dose: 100.0 mg/kg/injection, schedule: Q01DX009 (ip), vehicle: saline 103 % of control | dose: 200.0 mg/kg/injection, schedule: Q01DX009 (ip), vehicle: saline 95 % of control

CCOC(=O)C12OC(=O)CC(NC1C(=O)OC(C)(C)C)C2O (centres undefined)
inactive: dose: 60.0 mg/kg/injection, schedule: Q01DX005 (ip), vehicle: saline 98 % of control | dose: 120.0 mg/kg/injection, schedule: Q01DX005 (ip), vehicle: saline 91 % of control | dose: 240.0 mg/kg/injection, schedule: Q01DX005 (ip), vehicle: saline 104 % of control

O=C(O)c1ccc(/C=C2\COc3ccccc3C2=O)cc1
inactive: [1] 103 % of control | [2] 112 % of control | [3] 112 % of control

[C-]#[O+].[C-]#[O+].[CH3][Sn]([CH3])[c]1ccccc1.[Fe+5].[c-]1[c-][c-][cH-][c-]1
inactive: dose: 100.0 mg/kg/injection, schedule: Q04DX003 (ip), vehicle: saline with Tween-80 108 % of control | dose: 200.0 mg/kg/injection, schedule: Q04DX003 (ip), vehicle: saline with Tween-80 118 % of control

Nc1nc2c(-c3ccc([N+](=O)[O-])cc3)nnn2c2ccccc12
inactive: [4] 95 % of control | [5] 86 % of control | [6] 95 % of control

COc1cc2cc[n+](C)c(Cc3ccc(Oc4cc(Cc5c6cc(OC)c(OC)cc6cc[n+]5C)ccc4OC)cc3)c2cc1OC
inactive: dose: 2.5 mg/kg/injection, schedule: Q01DX009 (ip), vehicle: saline 98 % of control | dose: 5.0 mg/kg/injection, schedule: Q01DX009 (ip), vehicle: saline 99 % of control | dose: 10.0 mg/kg/injection, schedule: Q01DX009 (ip), vehicle: saline 88 % of control

CCSC(=S)S(=O)(=O)c1ccc(C)cc1
inactive: [7] 120 % of control | [8] 105 % of control | [9] 115 % of control and 123 % of control

CN=Cc1ccc(OC)cc1
inactive: [11] 95 % of control | [4] 95 % of control | [5] 95 % of control

Cn1c(-c2ccccc2)c2c(=O)oc3ccccc3c2c1-c1ccccc1
inactive: dose: 25.0 mg/kg/injection, schedule: Q04DX003 (ip), vehicle: Klucel (hydroxypropylcellulose) (HPC) 97 % of control | dose: 50.0 mg/kg/injection, schedule: Q04DX003 (ip), vehicle: Klucel (hydroxypropylcellulose) (HPC) 100 % of control | dose: 100.0 mg/kg/injection, schedule: Q04DX003 (ip), vehicle: Klucel (hydroxypropylcellulose) (HPC) 88 % of control and 94 % of control

Cc1ccc2nc(N/N=C/c3cccs3)sc2c1
inactive: [9] 100 % of control | [10] 101 % of control | [12] 94 % of control

Nc1ccc2cc3c(nc2n1)[nH]c1ccccc13
inactive: dose: 1.56 mg/kg/injection, schedule: Q01DX009 (ip), vehicle: saline with Tween-80 97 % of control | dose: 3.12 mg/kg/injection, schedule: Q01DX009 (ip), vehicle: saline with Tween-80 103 % of control | dose: 6.25 mg/kg/injection, schedule: Q01DX009 (ip), vehicle: saline with Tween-80 100 % of control | [13] 102 % of control | [11] 118 % of control

Clc1cc2c(nn1)-c1ccccc1C2
inactive: dose: 50.0 mg/kg/injection, schedule: Q01DX005 (ip), vehicle: saline with Tween-80 100 % of control | dose: 100.0 mg/kg/injection, schedule: Q01DX005 (ip), vehicle: saline with Tween-80 105 % of control | dose: 200.0 mg/kg/injection, schedule: Q01DX005 (ip), vehicle: saline with Tween-80 100 % of control

O=C1C(O)C(c2ccccc2)c2ccccc2N1c1ccccc1 (centres undefined)
inactive: dose: 100.0 mg/kg/injection, schedule: Q01DX001 (ip), vehicle: Klucel (hydroxypropylcellulose) (HPC) 95 % of control | dose: 200.0 mg/kg/injection, schedule: Q01DX001 (ip), vehicle: Klucel (hydroxypropylcellulose) (HPC) 96 % of control | dose: 400.0 mg/kg/injection, schedule: Q01DX001 (ip), vehicle: Klucel (hydroxypropylcellulose) (HPC) 89 % of control

CCCCC(CCCCCC(CCCC)NCc1ccc2c(c1)OCO2)NCc1ccc2c(c1)OCO2 (centres undefined)
inactive: dose: 3.12 mg/kg/injection, schedule: Q01DX009 (ip), vehicle: Klucel (hydroxypropylcellulose) (HPC) 102 % of control | dose: 6.25 mg/kg/injection, schedule: Q01DX009 (ip), vehicle: Klucel (hydroxypropylcellulose) (HPC) 97 % of control | [7] 100 % of control and 112 % of control

CCCCN(CCCC)CCC(=O)c1ccc(OC)c2ccccc12
inactive: [13] 110 % of control | [11] 119 % of control | [4] 111 % of control

CCOP(=S)(O/C(=C/Cl)c1cc(Cl)c(Cl)cc1Cl)c1ccccc1 (centres undefined)
inactive: [9] 92 % of control | [10] 95 % of control | [12] 96 % of control
